pEC50: −log10 of the molar value. Where a name gives a salt, the structure may show the parent alone.
Target: human activated kallikrein enzyme (Homo sapiens, UniProt P03952)
Test: Inhibition of human activated plasma kallikrein, fluorogenic PFR-AMC substrate, 500 pM enzyme format
Type: biochemical
Conditions: 500 pM activated kallikrein; 300 μM PFR-AMC; 30 min preincubation; 10 min room temperature; pH 7.5; read-out: Primary Dose Response Assay: Average EC50
In short: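 Using fluorogenic PFR-AMC at 300 μM, cleavage by 500 pM human activated kallikrein ran 10 min at room temperature, read at 460 nm emission (380 nm excitation). Enzyme and compounds were first preincubated 30 min in 20 mM Tris pH 7.5, 150 mM NaCl, 1 mM EDTA, 0.1% PEG-400, 0.1% Triton X-100.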

Chain of human activated kallikrein enzyme (P03952 391-638 limits assumed): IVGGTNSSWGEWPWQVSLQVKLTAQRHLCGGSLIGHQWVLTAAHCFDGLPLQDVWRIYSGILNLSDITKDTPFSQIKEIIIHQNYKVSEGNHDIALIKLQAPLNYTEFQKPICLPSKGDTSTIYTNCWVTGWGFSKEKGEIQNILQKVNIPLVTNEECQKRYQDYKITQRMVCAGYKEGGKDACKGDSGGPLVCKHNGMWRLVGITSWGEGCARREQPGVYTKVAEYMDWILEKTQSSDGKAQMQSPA
Chain of human activated kallikrein enzyme (P03952 20-390 partner limits assumed): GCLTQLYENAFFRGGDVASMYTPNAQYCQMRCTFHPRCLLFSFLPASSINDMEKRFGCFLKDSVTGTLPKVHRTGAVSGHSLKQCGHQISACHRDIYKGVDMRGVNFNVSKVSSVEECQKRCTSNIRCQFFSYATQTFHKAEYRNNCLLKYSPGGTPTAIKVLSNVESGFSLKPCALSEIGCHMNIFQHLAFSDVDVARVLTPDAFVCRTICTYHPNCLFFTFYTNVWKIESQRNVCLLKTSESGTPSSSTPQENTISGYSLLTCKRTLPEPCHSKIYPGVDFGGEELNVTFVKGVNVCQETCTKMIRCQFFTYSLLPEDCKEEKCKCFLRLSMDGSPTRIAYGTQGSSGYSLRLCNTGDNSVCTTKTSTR

SMILES	pEC50
Cc1cc2c(N)nccc2c(C)c1CNc1cc(OCc2cn3nc(C4CC4)ccc3n2)nc(C(F)(F)F)n1 [Example 389, 6-(((6-((6-cyclopropylimidazo[1,2-b]pyridazin-2-yl)methoxy)-2-(trifluoromethyl)pyrimidin-4-yl)amino)methyl)-5,7-dimethylisoquinolin-1-amine]	7.00 to 8.00
Cc1cc2c(N)nccc2c(C)c1CNC(=O)c1ccnc(Cc2ccc3ncc(Cl)cc3c2)c1 [Example 197, N-((1-amino-5,7-dimethylisoquinolin-6-yl)methyl)-2-((3-chloroquinolin-6-yl)methyl)isonicotinamide]	> 9.00
CCC(c1ccc(CNc2cc(NCc3c(C)cc4c(N)nccc4c3C)ncn2)cc1)n1cccn1 (centres unmarked) [Example I-484, N^4-(4-(1-(1H-pyrazol-1-yl)propyl)benzyl)-N^6-((1-amino-5,7-dimethylisoquinolin-6-yl)methyl)pyrimidine-4,6-diamine]	> 9.00
Cc1cc2c(N)nccc2c(C)c1CNC(=O)c1cn(Cc2ccc(Cn3cccn3)cc2)nc1C(F)(F)F [Example 185, 1-(4-((1H-pyrazol-1-yl)methyl)benzyl)-N-((1-amino-5,7-dimethylisoquinolin-6-y1)methyl)-3-(trifluoromethyl)-1H-pyrazole-4-carboxamide]	> 9.00
Cc1cc2c(N)nccc2c(C)c1CNC(=O)c1cnc(Cc2cn3cc(C4CC4)ccc3n2)s1 [Example 198, N-((1-amino-5,7-dimethylisoquinolin-6-y1)methyl)-2-((6-cyclopropylimidazo[1,2-a]pyridin-2-yl)methyl)thiazole-5-carboxamide]	8.00 to 9.00
Cc1cc2c(N)nccc2c(C)c1CNc1cc(NCc2ccc3c(c2)OCCN3C)ncn1 [Example 326, N^4-((1-amino-5,7-dimethylisoquinolin-6-yl)methyl)-N^6-((4-methyl-3,4-dihydro-2H-benzo[b][1,4]oxazin-7-yl)methyl)pyrimidine-4,6-diamine, formic acid salt]	8.00 to 9.00
Cc1cc2c(N)nccc2c(C)c1CNC(=O)c1cnn(Cc2ccc(CC(=O)N(C)CC3CC3)cc2)c1 [Example 204, N-((1-amino-5,7-dimethylisoquinolin-6-yl)methyl)-1-(4-(2-((cyclopropylmethyl)(methyl)amino)-2-oxoethyl)benzyl)-1H-pyrazole-4-carboxamide]	8.00 to 9.00
Cc1cc2c(N)nccc2c(C)c1CNc1cc2c(ccn2Cc2ccc3ncc(Cl)cc3c2)cn1 [Example 531, 6-(((1-((3-chloroquinolin-6-yl)methyl)-1H-pyrrolo[3,2-c]pyridin-6-yl)amino)methyl)-5,7-dimethylisoquinolin-1-amine]	7.00 to 8.00
Cc1cc2c(N)nccc2c(C)c1CNc1cc(OCc2csc(-c3ccccc3)n2)cnn1 [Example 430, 5,7-dimethyl-6-(((5-((2-phenylthiazol-4-yl)methoxy)pyridazin-3-yl)amino)methyl)isoquinolin-1-amine]	7.00 to 8.00
Cc1cc2c(N)nccc2c(C)c1CNc1cc(OCc2ccc(CCn3cccn3)cc2)cnn1 [Example 278, 6-(((5-((4-(2-(1H-pyrazol-1-yl)ethyl)benzyl)oxy)pyridazin-3-yl)amino)methyl)-5,7-dimethylisoquinolin-1-amine]	8.00 to 9.00
CC(=O)Nc1nccc2c(C)c(CNC(=O)c3cnn(Cc4cn5cc(C)ccc5n4)c3)c(C)cc12 [Example 8, N-((1-acetamido-5,7-dimethylisoquinolin-6-yl)methyl)-1-((6-methylimidazo[1,2-a]pyridin-2-yl)methyl)-1H-pyrazole-4-carboxamide]	7.00 to 8.00
Cc1cc2c(N)nccc2c(C)c1CNc1cc(NCc2nc3ccccc3s2)ncn1 [Example 319, N^4-((1-amino-5,7-dimethylisoquinolin-6-yl)methyl)-N6-(benzo[d]thiazol-2-ylmethyl)pyrimidine-4,6-diamine]	6.00 to 7.00
Cc1cc2c(N)nccc2c(C)c1CNc1cc(OCc2ccc(Cn3cccc(C4CC4)c3=O)cc2)ncn1 [Example 303, 1-(4-(((6-(((1-amino-5,7-dimethylisoquinolin-6-yl)methyl)amino)pyrimidin-4-yl)oxy)methyl)benzyl)-3-cyclopropylpyridin-2(1H)-one, formic acid salt]	8.00 to 9.00
Cc1cc2c(N)nccc2c(C)c1CNc1cc(C(O)c2cn3cc(C4CC4)ccc3n2)ncn1 (centres unmarked) [Example 406, (6-(((1-amino-5,7-dimethylisoquinolin-6-yl)methyl)amino)pyrimidin-4-yl)(6-cyclopropylimidazo[1,2-a]pyridin-2-yl)methanol]	> 9.00
Cc1cc2c(N)nccc2c(C)c1CNC(=O)c1cnn(Cc2ccc(Oc3cccn(C)c3=O)cc2)c1 [Example 18, N-((1-amino-5,7-dimethylisoquinolin-6-yl)methyl)-1-(4-((1-methyl-2-oxo-1,2-dihydropyridin-3-yl)oxy)benzyl)-1H-pyrazole-4-carboxamide]	> 9.00
Cc1cc2c(N)nccc2c(C)c1CNc1cc(OCc2ccc(CC(=O)N(C)C)cc2)ncn1 [Example I-466, 2-(4-(((6-(((1-amino-5,7-dimethylisoquinolin-6-yl)methyl)amino)pyrimidin-4-yl)oxy)methyl)phenyl)-N,N-dimethylacetamide]	8.00 to 9.00

SMILES	pEC50
Cc1cc2c(N)nccc2c(C)c1CNc1ccc2cnc(Cc3ccc4ncc(Cl)cc4c3)n2c1 [Example 520, 6-(((3-((3-chloroquinolin-6-yl)methyl)imidazo[1,5-a]pyridin-6-yl)amino)methyl)-5,7-dimethylisoquinolin-1-amine]	< 6.00
Cc1ccn2cc(CNc3cc(NCc4c(C)cc5c(N)nccc5c4C)ncn3)nc2c1 [Example 322, N^4-((1-amino-5,7-dimethylisoquinolin-6-yl)methyl)-N^6-((7-methylimidazo[1,2-a]pyridin-2-yl)methyl)pyrimidine-4,6-diamine]	8.00 to 9.00
Cc1cc2c(N)nccc2c(C)c1CNc1cc(OCc2cnn(-c3ccccc3)c2)cnn1 [Example 442, 5,7-dimethyl-6-(((5-((1-phenyl-1H-pyrazol-4-yl)methoxy)pyridazin-3-yl)amino)methyl)isoquinolin-1-amine]	8.00 to 9.00
Cc1cc2cc(CNc3cc(NCc4c(C)cc5c(N)nccc5c4C)ncn3)cnc2cc1C [Example 325, N^4-((1-amino-5,7-dimethylisoquinolin-6-yl)methyl)-N^6-((6,7-dimethylquinolin-3-yl)methyl)pyrimidine-4,6-diamine]	8.00 to 9.00
Cc1cc2c(N)nccc2c(C)c1CNc1cc(NCc2ccc(Cc3ncnn3C)cc2)ncn1 [Example 342, N^4-((1-amino-5,7-dimethylisoquinolin-6-yl)methyl)-N^6-(4-((1-methyl-1H-1,2,4-triazol-5-yl)methyl)benzyl)pyrimidine-4,6-diamine]	> 9.00
Cc1ccc2ccc(Cn3cc(C(=O)NCc4c(C)cc5c(N)nccc5c4C)cn3)cc2n1 [Example 27, N-((1-amino-5,7-dimethylisoquinolin-6-yl)methyl)-1-((2-methylquinolin-7-yl)methyl)-1H-pyrazole-4-carboxamide]	> 9.00
Cc1cc2c(N)nccc2c(C)c1CNc1ccc2nnc(Cc3ccc4ncc(Cl)cc4c3)n2c1 [Example 519, 6-(((3-((3-chloroquinolin-6-yl)methyl)-[1,2,4]triazolo[4,3-a]pyridin-6-yl)amino)methyl)-5,7-dimethylisoquinolin-1-amine]	6.00 to 7.00
Cc1cc2c(N)nccc2c(C)c1CNc1cc(OCc2ccc(Oc3cccn(C)c3=O)cc2)cnn1 [Example 427, 3-(4-(((6-(((1-amino-5,7-dimethylisoquinolin-6-yl)methyl)amino)pyridazin-4-yl)oxy)methyl)phenoxy)-1-methylpyridin-2(1H)-one]	> 9.00
Cc1cc2c(N)nccc2c(C)c1CNC(=O)c1cnn(Cc2cccc(F)c2)c1 [Example 45, N-((1-amino-5,7-dimethylisoquinolin-6-yl)methyl)-1-(3-fluorobenzyl)-1H-pyrazole-4-carboxamide]	6.00 to 7.00
Cc1cc2c(N)nccc2c(C)c1CNc1nccc(OCc2ccc(Cn3ccccc3=O)cc2)n1 [Example I-478, 1-(4-(((2-(((1-amino-5,7-dimethylisoquinolin-6-yl)methyl)amino)pyrimidin-4-yl)oxy)methyl)benzyl)pyridin-2(1H)-one]	8.00 to 9.00
Cc1ccc2nc(C(C)n3cc(C(=O)NCc4c(C)cc5c(N)nccc5c4C)cn3)cn2c1 (centres unmarked) [Example 13, N-((1-amino-5,7-dimethylisoquinolin-6-yl)methyl)-1-(1-(6-methylimidazo[1,2-a]pyridin-2-yl)ethyl)-1H-pyrazole-4-carboxamide]	> 9.00
Cc1cc2c(N)nccc2c(C)c1CNC(=O)c1cnn(Cc2ccc(CC(=O)N(C)Cc3ccccc3)cc2)c1 [Example 220, N-((1-amino-5,7-dimethylisoquinolin-6-yl)methyl)-1-(4-(2-(benzyl(methyl)amino)-2-oxoethyl)benzyl)-1H-pyrazole-4-carboxamide]	8.00 to 9.00
Cc1cc2c(N)nccc2c(C)c1CNc1ccnc(OCc2ccc(Cn3cccn3)cc2)c1 [Example I-455, 6-(((2-((4-((1H-pyrazol-1-yl)methyl)benzyl)oxy)pyridin-4-yl)amino)methyl)-5,7-dimethylisoquinolin-1-amine]	8.00 to 9.00
Cc1cc2c(N)nccc2c(C)c1CNC(=O)c1cnn(Cc2ccc(CC(=O)O)cc2)c1 [Example 131, 2-(4-((4-(((1-amino-5,7-dimethylisoquinolin-6-yl)methyl)carbamoyl)-1H-pyrazol-1-yl)methyl)phenyl)acetic acid]	6.00 to 7.00
Cc1cc(Cn2cc(C(=O)NCc3c(C)cc4c(N)nccc4c3C)cn2)ccc1CC(=O)N(C)C [Example 26, N-((1-amino-5,7-dimethylisoquinolin-6-yl)methyl)-1-(4-(2-(dimethylamino)-2-oxoethyl)-3-methylbenzyl)-1H-pyrazole-4-carboxamide]	> 9.00
Cc1cc2c(N)nccc2c(C)c1CNc1cc(NCc2ccc3cnccc3c2)ncn1 [Example 320, N^4-((1-amino-5,7-dimethylisoquinolin-6-yl)methyl)-N^6-(isoquinolin-6-ylmethyl)pyrimidine-4,6-diamine]	8.00 to 9.00

From patent US20260374754A1, “N-((ISOQUINOLIN-6-YL)METHYL)-1H-PYRAZOLE-4-CARBOXAMIDE DERIVATIVES AS PLASMA KALLIKREIN INHIBITORS FOR THE TREATMENT OF HEREDITARY ANGIODEMA” (Takeda Pharmaceutical Company Limited, priority 2022, published 2026)
